“Also recorded” adds a separate entry of the source.
Legend:
LXRα−/− mice [1] = assay: In vivo 5 day Dex ± GSK2033 co-treatment study; design: species or system mouse
Procedure: LXRα−/− mice were treated with Vehicle (Veh), Dex (2.5 mg/kg) b.i.d. or GSK2033 40 mg/kg (once a day) along with Dex b.i.d. for 5 days. (A) Plasma glucose levels were measured by a colorimetric kit (Wako). (B) Spleen weights were measured at the time of sacrifice, and are presented normalized to body weight. (C) Liver Pepck, FOXO1, Pgc 1α, FGF21, GR and LXRβ gene expression measured by QPCR. Data represent the Avg±SEM, N=2-5. *P<0.05 by One way ANOVA, Student Newman Keuls.
Having observed promising results with GSK2033 co-treatment with Dex in-vitro (GSK2033-mediated suppression of GC-induced gluconeogenic side effects without affecting desirable immune suppression); a study was conducted, in which whole body LXRα−/− mice were treated with vehicle (Veh), 2.5 mg/kg bid (subcutaneous injection) Dex or Dex+40 mg/kg GSK2033 (once a day intraperitoneal injection) for 5 days, and sacrificed at lights on.

IL-1β = IL-1β gene expression in LPS activated mouse primary macrophages (RT-QPCR); format: cell-based
Procedure: (§1) The expression of genes involved in immune response IL-1β, IL-6 and GILZ was measured following an overnight treatment with Dex 100 nM, 250 nM T0901317 (T09), and/or 10 μM GSK2033 in LPS activated WT, LXR α −/− and LXRβ −/− mouse primary macrophages, by RT-QPCR. Data represent the Avg±SD, N=3. *P<0.05 by One way ANOVA, Student Newman Keuls.
(§2) To assess the ability of GSK2033 to affect GR-mediated inflammatory suppression, a number of gene expression studies were conducted on primary macrophages isolated from WT, LXRα−/− and LXRβ−/− mice. Cells were pre-treated with 10 ng/ml lipopolysaccharide (LPS) for 6 hrs (to induce a potent inflammatory response) followed by treatment of 100 nM Dex, 10 μM GSK2033 and/or 250 nM T09 for 18 hrs.

GR = biological target: T1, GR (Homo sapiens, UniProt P04150); assay: GAL4-GR / UAS-luc co-transfection reporter assay in HEK293 cells; format: cell-based; design: co-transfecting UAS-reporter and GAL4-LBD of the nuclear receptors LXRα, LXRβ and GR; GAL4 (fusion partner); expressed in transfected cells; host or cells: HEK293 cells; mouse primary hepatocytes
T1 sequence (P04150 524-758 limits assumed): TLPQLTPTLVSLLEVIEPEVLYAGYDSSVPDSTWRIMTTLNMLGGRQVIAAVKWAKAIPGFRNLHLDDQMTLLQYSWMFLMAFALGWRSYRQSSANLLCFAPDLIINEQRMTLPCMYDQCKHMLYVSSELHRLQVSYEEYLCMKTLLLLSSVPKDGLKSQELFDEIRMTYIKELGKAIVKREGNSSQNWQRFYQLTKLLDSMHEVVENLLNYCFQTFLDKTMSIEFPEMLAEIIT
Procedure: (§3) RLU=relative luciferase units.
as §3
Further experiments were then carried out to determine the inhibitory potencies for the individual LXR isoforms in HEK 293 cells by co-transfecting UAS-reporter and GAL4-LBD of the nuclear receptors LXRα, LXRβ and GR and then treating with 8 different concentrations of GSK2033. To assess suppression of ligand activated receptors, the transfected cells were co-treated with increasing doses of GSK2033, in addition to T09091317 or Dex (dexamethasone) (at EC80 of LXR isoforms and GR, respectively).
A number of experiments were carried out to determine the relative inhibitory potencies of GSK2033, Amgen 54 and DMHCl for the individual LXR isoforms in HEK 293 cells by co-transfecting UAS-reporter and GAL4-LBD of the nuclear receptors LXRα, LXRβ and GR and then treating with 6 different concentrations of GSK2033, Amgen 54 and DMHCl. To assess suppression of ligand activated receptors, the transfected cells were co-treated with increasing doses of GSK2033, Amgen 54 and DMHCl, in addition to T09091317 or Dex (at EC80 of LXR isoforms and GR, respectively).

GILZ = GILZ gene expression in LPS activated mouse primary macrophages (RT-QPCR); format: cell-based; settings: 100 nM Dex + 10 μM GSK2033, 18 hrs
Procedure: as §1, §2

LXRα = biological target: T2, LXRα (Homo sapiens, UniProt Q13133); assay: GAL4-LXRα / UAS-luc transfection assay in mouse primary hepatocytes
T2 sequence (Q13133 209-447 limits assumed): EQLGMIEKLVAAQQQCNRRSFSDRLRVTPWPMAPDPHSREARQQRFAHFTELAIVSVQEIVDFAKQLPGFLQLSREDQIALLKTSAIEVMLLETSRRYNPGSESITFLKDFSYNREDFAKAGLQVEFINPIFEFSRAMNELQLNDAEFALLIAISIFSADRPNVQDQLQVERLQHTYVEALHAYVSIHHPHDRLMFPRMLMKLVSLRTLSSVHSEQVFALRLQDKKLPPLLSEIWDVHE

LXRα−/− mice [2] = assay: In vivo pilot study: T09 with GSK2033, liver LXR target genes
IL-6 = IL-6 gene expression in LPS activated mouse primary macrophages (RT-QPCR); format: cell-based
Procedure: as §1, §2

G6Pc = G6Pc gene expression in mouse primary hepatocytes; settings: LXRα−/− hepatocytes
Pepck = Pepck gene expression in mouse primary hepatocytes; format: cell-based
[3] = across the treatment groups (Veh, Dex, Dex+GSK2033)
[4] = LPS activated macrophages, 250 nM T09 + 10 μM GSK2033
[5] = WT, LXRα−/− and LXRβ−/− macrophages, LPS 10 ng/ml 6 hrs, 100 nM Dex + 10 μM GSK2033, 18 hrs
[6] = T09 5 mg/kg i.p. + GSK2033 20 or 40 mg/kg i.p.

With `Cc1cc(C)c(S(=O)(=O)N(Cc2ccc(-c3cccc(S(C)(=O)=O)c3)cc2)Cc2ccc(C(F)(F)F)o2)c(C)c1` [GSK2033, 2,4,6-trimethyl-N-((3′-(methylsulfonyl)-[1,1′-biphenyl]-4-yl)methyl)-N-((5-(trifluoromethyl)furan-2-yl)methyl)benzenesulfonamide] the “spleen size (weight normalized to body weight)” value (LXRα−/− mice [1]; Dex 2.5 mg/kg bid + GSK2033 40 mg/kg, 5 days, vs Veh) was “significantly smaller”, the “liver FOXO 1 gene induction” value (LXRα−/− mice [1]; Dex+GSK2033 group) was “normalized” and the “liver Pepck gene induction” value (LXRα−/− mice [1]; Dex+GSK2033 group) was “normalized”. For the same molecule, the “liver GR gene expression” value (LXRα−/− mice [1]; [3]) was “did not change”, the “liver LXR gene expression” value (LXRα−/− mice [1]; [3]) was “did not change” and the “T09 mediated suppression of IL-1β under GSK2033 co-treatment” value (IL-1β; [4]) was “antagonized”. The “Dex-mediated IL-1β repression under GSK2033 co-treatment” value (IL-1β; [5]) was “unaffected”, the “Dex induced GR activity” value (GR; Example 1, GAL4-GR activated with 100 nM Dex) was “unaffected; also recorded: did not antagonize” and the “Dex induced GR activity” value (GR; Example 7, 100 nM Dex) was “unaffected; also recorded: did not antagonize”. The “GR-mediated induction of GILZ under GSK2033 co-treatment” value (GILZ) was “unaffected”, the “right-shift of LXRα IC50, primary hepatocytes vs HEK293” value (LXRα) was ~10 fold and the “liver ABCG5 activation by T09” value (LXRα−/− mice [2]; [6]) was “dose dependent inhibition; also recorded: dose dependent repression”. For the same molecule, the “liver ABCG8 activation by T09” value (LXRα−/− mice [2]; [6]) was “dose dependent inhibition; also recorded: dose dependent repression”, the toxicity (LXRα−/− mice [2]; higher dose of GSK2033 (40 mg/kg)) was “no toxicity” and the “T09 mediated suppression of IL-6 under GSK2033 co-treatment” value (IL-6; [4]) was “antagonized”. The “Dex-mediated IL-6 repression under GSK2033 co-treatment” value (IL-6; [5]) was “unaffected”, the G6Pc expression (G6Pc; Example 6, 100 nM Dex + 10 μM GSK2033) was 4.9 fold and the G6Pc expression (G6Pc; Example 6, 10 μM Cortisol + 10 μM GSK2033) was 7.5 fold. The G6Pc expression (G6Pc; Example 6, 10 μM Prednisone + 10 μM GSK2033) was 9.8 fold, the G6Pc expression (G6Pc; Example 6, 10 μM Triamcinolone acetonide + 10 μM GSK2033) was 8.6 fold and the G6Pc expression (G6Pc; Example 8, 100 nM Dex + 10 μM LXR antagonist) was 5.3 fold. The Pepck expression (Pepck; Example 3, LXRα−/− hepatocytes, 100 nM Dex + 10 μM GSK2033) was 3.2 fold, the Pepck expression (Pepck; Example 3, LXRβ−/− hepatocytes, 100 nM Dex + 10 μM GSK2033) was “remained unchanged” and the Pepck expression (Pepck; Example 3, WT hepatocytes, 100 nM Dex + 10 μM GSK2033) was 1.9 fold. It also gave a Pepck expression (Pepck; Example 6, LXRα−/− hepatocytes, 100 nM Dex + 10 μM GSK2033) of 0.8 fold, a Pepck expression (Pepck; Example 6, LXRα−/− hepatocytes, 10 μM Cortisol + 10 μM GSK2033) of 1.7 fold and a Pepck expression (Pepck; Example 6, LXRα−/− hepatocytes, 10 μM Prednisone + 10 μM GSK2033) of 1.24 fold. For the same molecule, the Pepck expression (Pepck; Example 6, LXRα−/− hepatocytes, 10 μM Triamcinolone acetonide + 10 μM GSK2033) was 0.6 fold and the Pepck expression (Pepck; Example 8, LXRα−/− hepatocytes, 100 nM Dex + 10 μM LXR antagonist) was 2.7 fold.

— US9428753B2, “Use of LXR antagonists for treatment of side effects of elevated glucocorticoid levels” (The Governing Council of the University of Toronto, priority 2013, dated 2016)
